From patent publication US20140107218A1, “METHODS FOR MAINTAINING EYE HEALTH AND AMELIORATING OPTHALMIC MALADIES IN ANIMALS” (NESTEC SA, priority 2012, published 2014)

Test system: rabbit lenses
Assay: Calcium-induced lens opacification in cultured rabbit lenses, transparency evaluation
Format: cell-based
Conditions: 20 mM CaCl2 plus polyamine 100 mM; for Effect on calcium-induced lens opacification (in words): 72 hours; for Percent Light Transmittance After Treatments (Average): 72 hours of treatment, absorbance at 394 nm, triplicate, Control 73.3, Ca alone 47.3
Description: Rabbit eyes were obtained from a rabbit renderer and were dissected within twenty-four (24) hours of the animal's death. The lenses were removed aseptically and cultured in M199 media, 20 mM HEPES, 100 units/ml penicillin, […] streptomycin and 0.1% BSA under 5% CO2 at 37° C. in a humidified incubator for twenty-four hours before the start of treatment. Lens opacification was induced with 20 mM CaCl2, according to the method of Hytower and Dering (Hightower Kr, Dering, M (1984) Invest Ophthalmol Vis Sci 251:108-111). Polyamines were added at a concentration of 100 mM. All experiments were done in triplicate.
Transparency Evaluation: When proteins are modified or oxidized they aggregate, and cause protein solutions to become cloudy or translucent because the proteins lose solubility. The turbidity of a protein solution is a measure of protein aggregation. Turbidity of the lenses after treatment was determined by measuring the increase in protein absorbency. Control (no Ca++), Ca++ and Ca++ with polyamines spermidine, spermine, or putrescine were collected and homogenized in lysis buffer [50 mM Tris-HCl, pH 8.0; 150 mM NaCl, 1% Igepal and protease inhibitor cocktail (Sigma)] after seventy-two (72) hours of treatment. Absorbance was measured at 394 nm for each sample using a spectrophotometer. Transparency was calculated as a function of the percent transmittance according to Jain (Jain Ak, Lim G, Langford M, Jain Sk (2002) Free Radic Biol Med 33:1615-1621).

SMILES | Effect on calcium-induced lens opacification (in words) | Percent Light Transmittance After Treatments (Average) [%]
NCCCCN [Putrescine, putrescine] | reduce calcium-induced lens opacification | 65.7
NCCCNCCCCNCCCN [Spermine, spermine] |  | 53
NCCCCNCCCN [Spermidine, spermidine] | reduce calcium-induced lens opacification | 56.8
